Source: ChEMBL document CHEMBL1152232, “Muscarinic acetylcholine receptor antagonists: SAR and optimization of tyrosine ureas” (Bioorg Med Chem Lett, 2008)

How the values were obtained:
[1] = biological target: Muscarinic acetylcholine receptor M3 (Homo sapiens, UniProt P20309); experiment: Antagonist activity at human recombinant muscarinic M3 receptor expressed in CHO cells assessed as inhibition of acetylcholine-induced intracellular Ca2+ mobilization by FLIPR assay; type: functional, cell-based
Chain of Muscarinic acetylcholine receptor M3 (P20309 whole entry): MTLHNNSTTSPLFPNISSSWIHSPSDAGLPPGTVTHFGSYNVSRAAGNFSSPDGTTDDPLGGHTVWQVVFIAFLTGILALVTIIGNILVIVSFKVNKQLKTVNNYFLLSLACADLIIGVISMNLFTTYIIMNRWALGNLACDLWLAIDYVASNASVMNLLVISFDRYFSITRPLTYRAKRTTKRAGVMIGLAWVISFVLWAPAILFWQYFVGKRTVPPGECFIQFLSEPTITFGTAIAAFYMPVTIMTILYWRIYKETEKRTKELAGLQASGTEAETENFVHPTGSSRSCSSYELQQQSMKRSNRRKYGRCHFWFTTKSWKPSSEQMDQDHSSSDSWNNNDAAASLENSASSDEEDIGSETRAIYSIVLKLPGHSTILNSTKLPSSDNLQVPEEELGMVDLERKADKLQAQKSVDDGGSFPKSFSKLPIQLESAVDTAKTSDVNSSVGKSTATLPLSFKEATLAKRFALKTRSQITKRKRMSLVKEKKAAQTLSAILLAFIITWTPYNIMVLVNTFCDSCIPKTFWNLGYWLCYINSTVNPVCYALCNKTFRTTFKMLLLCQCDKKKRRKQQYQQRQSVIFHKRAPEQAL

[2] = biological target: T1, Muscarinic acetylcholine receptor M1 (Homo sapiens, UniProt P11229); experiment: Antagonist activity at human recombinant muscarinic M1 receptor expressed in CHO cells assessed as inhibition of acetylcholine-induced intracellular Ca2+ mobilization by FLIPR assay; type: functional, cell-based
T1 sequence (P11229 whole entry): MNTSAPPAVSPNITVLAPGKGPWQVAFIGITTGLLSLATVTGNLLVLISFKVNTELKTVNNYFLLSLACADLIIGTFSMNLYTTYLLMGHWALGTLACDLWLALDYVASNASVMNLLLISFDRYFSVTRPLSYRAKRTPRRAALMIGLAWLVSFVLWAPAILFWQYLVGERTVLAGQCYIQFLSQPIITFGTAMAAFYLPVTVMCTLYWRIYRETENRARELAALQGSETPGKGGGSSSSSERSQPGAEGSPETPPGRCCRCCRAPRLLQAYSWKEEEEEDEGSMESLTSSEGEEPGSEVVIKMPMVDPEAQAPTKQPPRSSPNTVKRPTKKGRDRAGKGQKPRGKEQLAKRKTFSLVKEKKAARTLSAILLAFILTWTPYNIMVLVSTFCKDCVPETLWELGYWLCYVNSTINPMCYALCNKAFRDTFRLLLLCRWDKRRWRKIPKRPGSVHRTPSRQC

[3] = biological target: Muscarinic acetylcholine receptor M1 and M3 (Homo sapiens) (UniProt P20309+P11229); experiment: Selectivity for human recombinant muscarinic M3 receptor over human recombinant muscarinic M1 receptor
Chain of Muscarinic acetylcholine receptor M1 and M3 (Homo sapiens) (P20309 whole entry, looked up, one chain of several): as the sequence (P20309 whole entry) above

[4] = biological target: T2, Muscarinic acetylcholine receptor M2 (Homo sapiens, UniProt P08172); experiment: Antagonist activity at human recombinant muscarinic M2 receptor expressed in CHO cells coexpressing chimeric G protein Gqi5 assessed as inhibition of acetylcholine-induced intracellular Ca2+ mobilization by FLIPR assay; type: functional, cell-based
T2 sequence (P08172 whole entry): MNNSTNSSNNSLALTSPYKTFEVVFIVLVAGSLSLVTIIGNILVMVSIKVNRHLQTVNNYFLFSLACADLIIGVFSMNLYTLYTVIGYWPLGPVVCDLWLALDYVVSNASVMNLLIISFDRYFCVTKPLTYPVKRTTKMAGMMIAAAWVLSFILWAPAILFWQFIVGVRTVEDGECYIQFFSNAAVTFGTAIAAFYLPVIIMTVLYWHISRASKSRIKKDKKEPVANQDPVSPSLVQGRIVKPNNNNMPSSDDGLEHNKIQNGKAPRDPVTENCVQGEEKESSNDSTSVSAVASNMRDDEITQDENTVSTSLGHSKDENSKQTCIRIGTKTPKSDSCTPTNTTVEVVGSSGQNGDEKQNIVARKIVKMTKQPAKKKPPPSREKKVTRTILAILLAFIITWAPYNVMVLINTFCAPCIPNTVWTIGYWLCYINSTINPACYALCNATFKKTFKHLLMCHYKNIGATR

[5] = biological target: Muscarinic acetylcholine receptors; M2 & M3 (Homo sapiens) (UniProt P20309+P08172); experiment: Selectivity for human recombinant muscarinic M3 receptor over human recombinant muscarinic M2 receptor
Chain of Muscarinic acetylcholine receptors; M2 & M3 (Homo sapiens) (P20309 whole entry, looked up, one chain of several): as the sequence (P20309 whole entry) above

[6] = Permeability across artificial membrane; type: ADME; conditions: PAMPA; read-out: permeability

Row | IC50 [1] | IC50 [2] | Selectivity ratio [3] | IC50 [4] | Selectivity ratio [5] | Kb ([1]; read-out: pA2 (converted)) | Kb ([2]; read-out: pA2 (converted)) | Kb ([4]; read-out: pA2 (converted)) | Papp [6] | SMILES
1 | 5.01 nM | 1000 nM | 100 | 79.4 nM | > 10 | – | – | – | – | CC(C)OC(=O)c1ccc(NC(=O)N[C@@H](Cc2ccc(O)cc2)C(=O)NC2CCN(Cc3ccc(O)cc3)C2)cc1 (stereo partly specified)
2 | 6.31 nM | 251 nM | 100 | 100 nM | 10 | – | – | – | – | CCOC(=O)c1ccc(NC(=O)N[C@@H](Cc2ccc(O)cc2)C(=O)NC2CCN(Cc3cccc(C#N)c3)C2)cc1 (stereo partly specified)
3 | 794 nM | > 3160 nM | 100 | 2510 nM | 10 | – | – | – | – | CCOC(=O)c1ccc(NC(=O)N[C@@H](Cc2ccc(O)cc2)C(=O)NC2CCN(CC)C2)cc1 (stereo partly specified)
4 | 15.8 nM | > 3160 nM | 100 | 631 nM | 10 | – | – | – | – | CCOC(=O)c1ccc(NC(=O)N[C@@H](Cc2ccc(O)cc2)C(=O)NC2CCN(Cc3cccc(C(F)(F)F)c3)C2)cc1 (stereo partly specified)
5 | 20 nM | 794 nM | 100 | 158 nM | 10 | – | – | – | – | CCOC(=O)c1ccc(NC(=O)N[C@@H](Cc2ccc(O)cc2)C(=O)NC2CCN(Cc3cccc(O)c3)C2)cc1 (stereo partly specified)
6 | – | – | 100 | – | > 10 | 0.1 nM | 15.8 nM | 1.58 nM | – | C=CC[N+]1(Cc2cccc(O)c2)CCC[C@H](NC(=O)[C@H](Cc2ccc(O)cc2)NC(=O)Nc2ccc(C(=O)OC(C)C)cc2)C1 (stereo partly specified)
7 | 20 nM | 501 nM | 100 | 251 nM | 10 | – | – | – | – | CCOC(=O)c1ccc(NC(=O)N[C@@H](Cc2ccc(O)cc2)C(=O)NC2CCN(Cc3ccc(OC)cc3)C2)cc1 (stereo partly specified)
8 | 50.1 nM | 1000 nM | 100 | 158 nM | 10 | – | – | – | – | CCOC(=O)c1ccc(NC(=O)N[C@@H](Cc2ccc(O)cc2)C(=O)NC2CCN(Cc3ccccc3OC)C2)cc1 (stereo partly specified)
9 | 25.1 nM | 2510 nM | 100 | 316 nM | 10 | – | – | – | – | CCOC(=O)c1ccc(NC(=O)N[C@@H](Cc2ccc(O)cc2)C(=O)NC2CCN(Cc3cccc(OC)c3)C2)cc1 (stereo partly specified)
10 | – | – | – | – | – | – | – | – | < 0.3 ×10⁻⁶ cm/s | CC(C)OC(=O)c1ccc(NC(=O)N[C@@H](Cc2ccc(O)cc2)C(=O)N[C@H]2CCC[N+](C)(Cc3cccc(O)c3)C2)cc1.[I-] (stereo partly specified)
